# Assay results: PubChem BioAssay (NCI)
#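 Briefly, cells in 96-well plates were exposed to five compound concentrations for 48 h, and endpoints were estimated by linear interpolation. TGI marks complete inhibition of growth.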
# How the values were obtained:
# Assay in all cases: NCI-60 cell line screen, 48 h
# MCF7 breast = system: MCF7 breast
# SF-268 CNS = system: SF-268 CNS
# 786-0 renal = system: 786-0 renal
# SK-OV-3 ovarian = system: SK-OV-3 ovarian
# SNB-19 CNS = system: SNB-19 CNS
# ACHN renal = system: ACHN renal
# IGROV1 ovarian = system: IGROV1 ovarian
# UO-31 renal = system: UO-31 renal
# MOLT-4 leukemia = system: MOLT-4 leukemia
# HL-60(TB) leukemia = system: HL-60(TB) leukemia
# EKVX NSCLC = system: EKVX NSCLC
# OVCAR-4 ovarian = system: OVCAR-4 ovarian
# HT29 colon = system: HT29 colon
# MALME-3M melanoma = system: MALME-3M melanoma
# SK-MEL-28 melanoma = system: SK-MEL-28 melanoma
# NCI/ADR-RES ovarian = system: NCI/ADR-RES ovarian
# U251 CNS = system: U251 CNS
# SF-295 CNS = system: SF-295 CNS
# KM12 colon = system: KM12 colon
# NCI-H460 lung = system: NCI-H460 lung
# MDA-MB-231 breast = system: MDA-MB-231 breast
# TK-10 renal = system: TK-10 renal
# SNB-75 CNS = system: SNB-75 CNS
# HOP-62 NSCLC = system: HOP-62 NSCLC
# MDA-N = system: MDA-N
# SN12C renal = system: SN12C renal
# SK-MEL-2 melanoma = system: SK-MEL-2 melanoma
# RXF 393 renal = system: RXF 393 renal
# T-47D breast = system: T-47D breast
# HCT-15 colon = system: HCT-15 colon
# DU-145 prostate = system: DU-145 prostate
# NCI-H226 lung = system: NCI-H226 lung
# COLO 205 colon = system: COLO 205 colon
# K-562 leukemia = system: K-562 leukemia
# HCC-2998 colon = system: HCC-2998 colon
# NCI-H23 lung = system: NCI-H23 lung
# SF-539 CNS = system: SF-539 CNS
# CAKI-1 renal = system: CAKI-1 renal
# CCRF-CEM leukemia = system: CCRF-CEM leukemia
# OVCAR-3 ovarian = system: OVCAR-3 ovarian
# OVCAR-5 ovarian = system: OVCAR-5 ovarian
# SR leukemia = system: SR leukemia
# RPMI-8226 leukemia = system: RPMI-8226 leukemia
# UACC-62 melanoma = system: UACC-62 melanoma
# MDA-MB-435 = system: MDA-MB-435
# SK-MEL-5 melanoma = system: SK-MEL-5 melanoma
# UACC-257 melanoma = system: UACC-257 melanoma
# LOX IMVI melanoma = system: LOX IMVI melanoma
# M14 melanoma = system: M14 melanoma
# HCT-116 colon = system: HCT-116 colon
# BT-549 breast = system: BT-549 breast
# OVCAR-8 ovarian = system: OVCAR-8 ovarian
# HS 578T breast = system: HS 578T breast
# PC-3 prostate = system: PC-3 prostate
# A549 NSCLC = system: A549 NSCLC
# SW-620 colon = system: SW-620 colon
smiles,measurement,setting,value
COP(=O)(OC)C(C)(C)NC(=O)NC(F)(F)F,TGI,MCF7 breast,> 100 µM
same,TGI,SF-268 CNS,> 100 µM
same,TGI,786-0 renal,> 100 µM
same,TGI,SK-OV-3 ovarian,> 100 µM
same,TGI,SNB-19 CNS,> 100 µM
same,TGI,ACHN renal,> 100 µM
same,TGI,IGROV1 ovarian,> 100 µM
same,TGI,UO-31 renal,> 100 µM
same,TGI,MOLT-4 leukemia,> 100 µM
same,TGI,HL-60(TB) leukemia,> 100 µM
same,TGI,EKVX NSCLC,> 100 µM
same,TGI,OVCAR-4 ovarian,> 100 µM
same,TGI,HT29 colon,> 100 µM
same,TGI,MALME-3M melanoma,> 100 µM
same,TGI,SK-MEL-28 melanoma,> 100 µM
same,TGI,NCI/ADR-RES ovarian,> 100 µM
same,TGI,U251 CNS,> 100 µM
same,TGI,SF-295 CNS,> 100 µM
same,TGI,KM12 colon,> 100 µM
same,TGI,NCI-H460 lung,> 100 µM
same,TGI,MDA-MB-231 breast,> 100 µM
same,TGI,TK-10 renal,> 100 µM
same,TGI,SNB-75 CNS,> 100 µM
same,TGI,HOP-62 NSCLC,> 100 µM
same,TGI,MDA-N,> 100 µM
same,TGI,SN12C renal,> 100 µM
same,TGI,SK-MEL-2 melanoma,> 100 µM
same,TGI,RXF 393 renal,> 100 µM
same,TGI,T-47D breast,> 100 µM
same,TGI,HCT-15 colon,> 100 µM
same,TGI,DU-145 prostate,> 100 µM
same,TGI,NCI-H226 lung,91.1 µM
same,TGI,COLO 205 colon,> 100 µM
same,TGI,K-562 leukemia,> 100 µM
same,TGI,HCC-2998 colon,> 100 µM
same,TGI,NCI-H23 lung,> 100 µM
same,TGI,SF-539 CNS,> 100 µM
same,TGI,CAKI-1 renal,16.6 µM
same,TGI,CCRF-CEM leukemia,> 100 µM
same,TGI,OVCAR-3 ovarian,> 100 µM
same,TGI,OVCAR-5 ovarian,> 100 µM
same,TGI,SR leukemia,> 100 µM
same,TGI,RPMI-8226 leukemia,> 100 µM
same,TGI,UACC-62 melanoma,> 100 µM
same,TGI,MDA-MB-435,> 100 µM
same,TGI,SK-MEL-5 melanoma,> 100 µM
same,TGI,UACC-257 melanoma,> 100 µM
same,TGI,LOX IMVI melanoma,> 100 µM
same,TGI,M14 melanoma,> 100 µM
same,TGI,HCT-116 colon,> 100 µM
same,TGI,BT-549 breast,> 100 µM
same,TGI,OVCAR-8 ovarian,> 100 µM
same,TGI,HS 578T breast,> 100 µM
same,TGI,PC-3 prostate,> 100 µM
same,TGI,A549 NSCLC,> 100 µM
same,TGI,SW-620 colon,> 100 µM
